# Assay results from patent US6479435B1, “Diaryl ethers and processes for their preparation and herbicidal and desiccant compositions containing them” (ISK Americas Incorporated, priority 1997, dated 2002).
# Columns and labels:
# Assay type in all cases: in vivo
# [1] = system: Johnsongrass (Sorghum halepense, SORHA); test: Pre-emerge greenhouse herbicide test, phytotoxicity rating; conditions: 14 days after application, rating scale 0-100
# In short: (§1)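 Seeds sown in sandy loam one day before track-sprayer application of acetone solutions at 125–1000 g ai/ha (187 l/ha), then surface-watered to incorporate and bottom-watered. Injury scored visually at 14 days on a 0–100 scale (0 no damage, 100 complete death).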
# [2] = system: barnyardgrass (Echinochloa crusgalli, ECHCG); test: as above; conditions: 14 days after application, rating scale 0-100
# In short: as §1
# [3] = system: common ragweed (Ambrosia artemisiifolia L., AMBEL); test: as above; conditions: 14 days after application, rating scale 0-100
# In short: as §1
# [4] = system: green foxtail (Setaria viridis, SETVI); test: as above; conditions: 14 days after application, rating scale 0-100
# In short: as §1
# [5] = system: ivyleaf morningglory (Ipomoea hederacea, IPOHE); test: as above; conditions: 14 days after application, rating scale 0-100
# In short: as §1
# [6] = system: lambsquarters (Chenopodium album, CHEAL); test: as above; conditions: 14 days after application, rating scale 0-100
# In short: as §1
# [7] = system: large crabgrass (Digitaria sanguinalis, DIGSA); test: as above; conditions: 14 days after application, rating scale 0-100
# In short: as §1
# [8] = system: redroot pigweed (Amaranthus retroflexus, AMARE); test: as above; conditions: 14 days after application, rating scale 0-100
# In short: as §1
# [9] = system: sicklepod (Cassia obtusifolia, CASOB); test: as above; conditions: 14 days after application, rating scale 0-100
# In short: as §1
# [10] = system: velvetleaf (Abutilon theophrasti, ABUTH); test: as above; conditions: 14 days after application, rating scale 0-100
# In short: as §1
# [11] = system: field corn (Zea mays L., var. Dekalb 535, CORN); test: Pre-emerge greenhouse test, crop damage rating; conditions: 14 days after application, rating scale 0-100
# In short: as §1
# [12] = system: upland rice (Oryza sp., var.Tebonnet, RICE); test: Pre-emerge greenhouse test, crop damage rating; conditions: 14 days after application, rating scale 0-100
# In short: as §1
# [13] = system: soybean (Glycine max L., var. Pella 86, SOY); test: Pre-emerge greenhouse test, crop damage rating; conditions: 14 days after application, rating scale 0-100
# In short: as §1
# [14] = system: common ragweed (Ambrosia artemisiifolia L., AMBEL); test: Post-emerge greenhouse herbicide test, phytotoxicity rating; conditions: 14 days after application
# In short: (§2)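 Plants at the 2-3 leaf stage, sown 8-21 days earlier, were track-sprayed post-emergence with compound in acetone plus 0.25% v/v non-ionic surfactant at 63-1000 g ai/ha (187 l/ha). Damage was rated at 14 days on a 0-100 scale (0 none, 100 all plants dead), for both crop injury and weed control.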
# [15] = system: Johnsongrass (Sorghum halepense, SORHA); test: as above; conditions: 14 days after application
# In short: as §2
# [16] = system: barnyardgrass (Echinochloa crusgalli, ECHCG); test: as above; conditions: 14 days after application
# In short: as §2
# [17] = system: green foxtail (Setaria viridis, SETVI); test: as above; conditions: 14 days after application
# In short: as §2
# [18] = system: ivyleaf morningglory (Ipomoea hederacea, IPOHE); test: as above; conditions: 14 days after application
# In short: as §2
# [19] = system: lambsquarters (Chenopodium album, CHEAL); test: as above; conditions: 14 days after application
# In short: as §2
# [20] = system: large crabgrass (Digitaria sanguinalis, DIGSA); test: as above; conditions: 14 days after application
# In short: as §2
# [21] = system: redroot pigweed (Amaranthus retroflexus, AMARE); test: as above; conditions: 14 days after application
# In short: as §2
# [22] = system: sicklepod (Cassia obtusifolia, CASOB); test: as above; conditions: 14 days after application
# In short: as §2
# [23] = system: velvetleaf (Abutilon theophrasti, ABUTH); test: as above; conditions: 14 days after application
# In short: as §2
# [24] = system: field corn (Zea mays L., var. Dekalb 535, CORN); test: Post-emerge greenhouse test, crop damage rating; conditions: 14 days after application
# In short: as §2
# [25] = system: upland rice (Oryza sp., var.Tebonnet, RICE); test: Post-emerge greenhouse test, crop damage rating; conditions: 14 days after application
# In short: as §2
# [26] = system: soybean (Glycine max L., var. Pella 86, SOY); test: Post-emerge greenhouse test, crop damage rating; conditions: 14 days after application
# In short: as §2
compound,measurement,setting,value
O=c1n(CCCF)nnn1-c1cc(Oc2ncccc2[N+](=O)[O-])c(Cl)cc1F [Compound 6-2],phytotoxicity rating SORHA,[1]; 125 g ai/ha,0
same,phytotoxicity rating SORHA,[1]; 500 g ai/ha,0
same,phytotoxicity rating ECHCG,[2]; 125 g ai/ha,0
same,phytotoxicity rating ECHCG,[2]; 500 g ai/ha,10
same,phytotoxicity rating AMBEL,[3]; 125 g ai/ha,30
same,phytotoxicity rating AMBEL,[3]; 500 g ai/ha,40
same,phytotoxicity rating SETVI,[4]; 125 g ai/ha,30
same,phytotoxicity rating SETVI,[4]; 500 g ai/ha,70
same,phytotoxicity rating IPOHE,[5]; 125 g ai/ha,10
same,phytotoxicity rating IPOHE,[5]; 500 g ai/ha,40
same,phytotoxicity rating CHEAL,[6]; 125 g ai/ha,100
same,phytotoxicity rating CHEAL,[6]; 500 g ai/ha,100
same,phytotoxicity rating DIGSA,[7]; 125 g ai/ha,0
same,phytotoxicity rating DIGSA,[7]; 500 g ai/ha,60
same,phytotoxicity rating AMARE,[8]; 125 g ai/ha,95
same,phytotoxicity rating AMARE,[8]; 500 g ai/ha,99
same,phytotoxicity rating CASOB,[9]; 125 g ai/ha,20
same,phytotoxicity rating CASOB,[9]; 500 g ai/ha,0
same,phytotoxicity rating ABUTH,[10]; 125 g ai/ha,90
same,phytotoxicity rating ABUTH,[10]; 500 g ai/ha,100
same,crop damage rating CORN,[11]; 125 g ai/ha,0
same,crop damage rating CORN,[11]; 500 g ai/ha,0
same,crop damage rating RICE,[12]; 125 g ai/ha,20
same,crop damage rating RICE,[12]; 500 g ai/ha,10
same,crop damage rating SOY,[13]; 125 g ai/ha,10
same,crop damage rating SOY,[13]; 500 g ai/ha,15
same,AMBEL phytotoxicity rating (0-100),[14]; 63 g al/ha,10
same,AMBEL phytotoxicity rating (0-100),[14]; 500 g al/ha,30
same,SORHA phytotoxicity rating (0-100),[15]; 63 g al/ha,0
same,SORHA phytotoxicity rating (0-100),[15]; 500 g al/ha,20
same,ECHCG phytotoxicity rating (0-100),[16]; 63 g al/ha,0
same,ECHCG phytotoxicity rating (0-100),[16]; 500 g al/ha,30
same,SETVI phytotoxicity rating (0-100),[17]; 63 g al/ha,10
same,SETVI phytotoxicity rating (0-100),[17]; 500 g al/ha,10
same,IPOHE phytotoxicity rating (0-100),[18]; 63 g al/ha,20
same,IPOHE phytotoxicity rating (0-100),[18]; 500 g al/ha,90
same,CHEAL phytotoxicity rating (0-100),[19]; 63 g al/ha,50
same,CHEAL phytotoxicity rating (0-100),[19]; 500 g al/ha,90
same,DIGSA phytotoxicity rating (0-100),[20]; 63 g al/ha,0
same,DIGSA phytotoxicity rating (0-100),[20]; 500 g al/ha,0
same,AMARE phytotoxicity rating (0-100),[21]; 63 g al/ha,40
same,AMARE phytotoxicity rating (0-100),[21]; 500 g al/ha,95
same,CASOB phytotoxicity rating (0-100),[22]; 63 g al/ha,0
same,CASOB phytotoxicity rating (0-100),[22]; 500 g al/ha,10
same,ABUTH phytotoxicity rating (0-100),[23]; 63 g al/ha,98
same,ABUTH phytotoxicity rating (0-100),[23]; 500 g al/ha,100
same,CORN crop damage rating (0-100),[24]; 63 g al/ha,5
same,CORN crop damage rating (0-100),[24]; 500 g al/ha,5
same,RICE crop damage rating (0-100),[25]; 63 g al/ha,0
same,RICE crop damage rating (0-100),[25]; 500 g al/ha,30
same,SOY crop damage rating (0-100),[26]; 63 g al/ha,20
same,SOY crop damage rating (0-100),[26]; 500 g al/ha,30
N#Cc1cccnc1Oc1cc(-n2nnn(CCCF)c2=O)c(F)cc1Cl [Compound 6-4],phytotoxicity rating SORHA,[1]; 125 g ai/ha,20
same,phytotoxicity rating SORHA,[1]; 500 g ai/ha,100
same,phytotoxicity rating ECHCG,[2]; 125 g ai/ha,0
same,phytotoxicity rating ECHCG,[2]; 500 g ai/ha,95
same,phytotoxicity rating AMBEL,[3]; 125 g ai/ha,0
same,phytotoxicity rating AMBEL,[3]; 500 g ai/ha,40
same,phytotoxicity rating SETVI,[4]; 125 g ai/ha,100
same,phytotoxicity rating SETVI,[4]; 500 g ai/ha,100
same,phytotoxicity rating IPOHE,[5]; 125 g ai/ha,40
same,phytotoxicity rating IPOHE,[5]; 500 g ai/ha,100
same,phytotoxicity rating CHEAL,[6]; 125 g ai/ha,100
same,phytotoxicity rating CHEAL,[6]; 500 g ai/ha,100
same,phytotoxicity rating DIGSA,[7]; 125 g ai/ha,70
same,phytotoxicity rating DIGSA,[7]; 500 g ai/ha,100
same,phytotoxicity rating AMARE,[8]; 125 g ai/ha,100
same,phytotoxicity rating AMARE,[8]; 500 g ai/ha,100
same,phytotoxicity rating CASOB,[9]; 125 g ai/ha,50
same,phytotoxicity rating CASOB,[9]; 500 g ai/ha,30
same,phytotoxicity rating ABUTH,[10]; 125 g ai/ha,100
same,phytotoxicity rating ABUTH,[10]; 500 g ai/ha,100
same,crop damage rating CORN,[11]; 125 g ai/ha,0
same,crop damage rating CORN,[11]; 500 g ai/ha,10
same,crop damage rating RICE,[12]; 125 g ai/ha,15
same,crop damage rating RICE,[12]; 500 g ai/ha,35
same,crop damage rating SOY,[13]; 125 g ai/ha,0
same,crop damage rating SOY,[13]; 500 g ai/ha,20
same,AMBEL phytotoxicity rating (0-100),[14]; 63 g al/ha,20
same,AMBEL phytotoxicity rating (0-100),[14]; 500 g al/ha,20
same,SORHA phytotoxicity rating (0-100),[15]; 63 g al/ha,0
same,SORHA phytotoxicity rating (0-100),[15]; 500 g al/ha,80
same,ECHCG phytotoxicity rating (0-100),[16]; 63 g al/ha,0
same,ECHCG phytotoxicity rating (0-100),[16]; 500 g al/ha,60
same,SETVI phytotoxicity rating (0-100),[17]; 63 g al/ha,20
same,SETVI phytotoxicity rating (0-100),[17]; 500 g al/ha,40
same,IPOHE phytotoxicity rating (0-100),[18]; 63 g al/ha,65
same,IPOHE phytotoxicity rating (0-100),[18]; 500 g al/ha,85
same,CHEAL phytotoxicity rating (0-100),[19]; 63 g al/ha,85
same,CHEAL phytotoxicity rating (0-100),[19]; 500 g al/ha,100
same,DIGSA phytotoxicity rating (0-100),[20]; 63 g al/ha,0
same,DIGSA phytotoxicity rating (0-100),[20]; 500 g al/ha,0
same,AMARE phytotoxicity rating (0-100),[21]; 63 g al/ha,75
same,AMARE phytotoxicity rating (0-100),[21]; 500 g al/ha,99
same,CASOB phytotoxicity rating (0-100),[22]; 63 g al/ha,15
same,CASOB phytotoxicity rating (0-100),[22]; 500 g al/ha,50
same,ABUTH phytotoxicity rating (0-100),[23]; 63 g al/ha,90
same,ABUTH phytotoxicity rating (0-100),[23]; 500 g al/ha,100
same,CORN crop damage rating (0-100),[24]; 63 g al/ha,10
same,CORN crop damage rating (0-100),[24]; 500 g al/ha,20
same,RICE crop damage rating (0-100),[25]; 63 g al/ha,20
same,RICE crop damage rating (0-100),[25]; 500 g al/ha,35
same,SOY crop damage rating (0-100),[26]; 63 g al/ha,20
same,SOY crop damage rating (0-100),[26]; 500 g al/ha,60
